Laboratory results taken from ChEMBL document CHEMBL1687746, “Impact of sarA on daptomycin susceptibility of Staphylococcus aureus biofilms in vivo” (2009).
Converted amounts (≈) assume the structure as drawn. The source made the active and inactive calls. The rule behind the calls is not given here.

What was measured:
[1] = test system: Staphylococcus aureus; experiment: Antimicrobial activity against Staphylococcus aureus UAMS-1 assessed as bacterial load in catheter at 20 times MIC; format: functional
[2] = test system: Staphylococcus aureus; experiment: Antimicrobial activity against Staphylococcus aureus UAMS-1 sarA mutant by Etest method
[3] = test system: Staphylococcus aureus; experiment: Antimicrobial activity against Staphylococcus aureus UAMS-929 assessed as bacterial load in catheter at 20 times MIC; format: functional
[4] = test system: Staphylococcus aureus; experiment: Antimicrobial activity against Staphylococcus aureus UAMS-1625 sarA mutant by Etest method; format: functional
[5] = test system: Staphylococcus aureus; experiment: Antimicrobial activity against Staphylococcus aureus UAMS-1625 reduction in bacterial load in catheter at 20 ug/ml for 3 days; format: functional, organism-based
[6] = test system: Staphylococcus aureus; experiment: Antimicrobial activity against Staphylococcus aureus UAMS-1625 assessed as bacterial load in catheter at 10 times MIC; format: functional
[7] = test system: Staphylococcus aureus; experiment: Antimicrobial activity against Staphylococcus aureus UAMS-1 assessed as reduction in bacterial load in catheter at >/= 10 ug/ml for 3 days; format: functional, organism-based
[8] = test system: Staphylococcus aureus; experiment: Antimicrobial activity against Staphylococcus aureus UAMS-1 by Etest method
[9] = test system: Staphylococcus aureus; experiment: Antimicrobial activity against Staphylococcus aureus UAMS-1653 assessed as bacterial load in catheter at 10 times MIC; format: functional
[10] = test system: Staphylococcus aureus; experiment: Antimicrobial activity against Staphylococcus aureus UAMS-1625 by Etest method; format: functional
[11] = test system: Staphylococcus aureus; experiment: Antimicrobial activity against Staphylococcus aureus UAMS-1 assessed as reduction in bacterial load in catheter at 20 ug/ml for 3 days; format: functional, organism-based

CCCCCCCCCC(=O)N[C@@H](Cc1c[nH]c2ccccc12)C(=O)N[C@H](CC(N)=O)C(=O)N[C@@H](CC(=O)O)C(=O)N[C@@H]1C(=O)NCC(=O)N[C@@H](CCCN)C(=O)N[C@@H](CC(=O)O)C(=O)N[C@H](C)C(=O)N[C@@H](CC(=O)O)C(=O)NCC(=O)N[C@H](CO)C(=O)N[C@@H]([C@H](C)CC(=O)O)C(=O)N[C@@H](CC(=O)c2ccccc2N)C(=O)O[C@@H]1C
Activity [1]: 6.7%
MIC [2]: 0.5 µg/mL (≈ 0.309 µM)
Activity [3]: 46.4%
MIC [4]: 0.38 µg/mL (≈ 0.234 µM)
Activity [5]: Active
Activity [6]: 6.3%
Activity [7]: Active
MIC [8]: 0.5 µg/mL (≈ 0.309 µM)
Activity [9]: 69%
MIC [10]: 0.38 µg/mL (≈ 0.234 µM)
Activity [11]: inactive
